“Also recorded” adds a separate entry of the source.

In assay [1] the test system is CD3-stimulated CD3+ splenic T cells. The assay can be described thus: Seahorse OCR of activated CD3+ splenic T cells with mitochondrial fuel pathway inhibitors. The assay is classed as cell-based, mouse. To be noted: for maximal respiration: activated Sirt2−/− CD3+ T cells; for maximal respiration (in response of FCCP): activated WT CD3+ T cells. As for the experimental part: Extracellular acidification rate (ECAR) and oxygen consumption rate (OCR) were measured using the Seahorse XF analyzer (Agilent technologies). Glycolysis Stress Test (GST), glycolytic rate assay (GRA) and mitochondrial stress test (MST) were purchased from Agilent technologies and performed according to the kit manufacturer's instructions.
The day of the assay, 2×10^5 activated T cells were plated in Cell-Tak (Corning)-coated XF96 plates in XF media (XF RPMI Medium pH 7.4 containing 2 mM L-glutamine only for GST or supplemented with 10 mM glucose, 2 mM L-glutamine and 1 mM sodium pyruvate for GRA and MST, all from Agilent technologies) via centrifugation to ensure cell attachment. Cells were equilibrated for 1 hr in a non-CO2 incubator before starting the assay.
(§1) To measure the contribution of glycolysis, glutaminolysis and FAO as fuels for mitochondrial metabolism, OCR and ECAR were measured under basal conditions and in response to sequential injections of vehicle, UK5099 (2 μM), BPTES (3 μM) or Etomoxir (4 μM) inhibitors and then 1 μM oligomycin, 1 μM FCCP (Carbonyl cyanide 4-trifluoromethoxyphenylhydrazone) and 0.5 μM rotenone/antimycin A.

The subject of assay [2] is TILs from B16F10 tumor nodules. The assay can be described thus: Seahorse OCR of TILs freshly isolated from B16F10 tumor nodules with Etomoxir. Format: cell-based, mouse. The method, then: Lymphocytes from subcutaneous tumors were isolated by dicing the tissues followed by enzymatic digestion in PBS containing collagenase type 4 (2 mg/ml, Worthington Biochemical) and DNase I (0.25 mg/ml, Sigma-Aldrich) for 45 min with occasional shaking at 37° C. Cell suspensions were then twice filtered through 100 μm and 40 μm cell strainers (Thermo Fisher Scientific) to obtain single-cell suspension followed by a PBS wash and red blood cell lysis using RBC Lysis Buffer (Biolegend). TILs were finally isolated by density gradient centrifugation using Percoll (GE Healthcare) and were further purified using CD3c MicroBeads Kit™ (Miltenyi Biotec) according to the manufacturer's instructions. T cell purity was greater than 90%. Fresh TILs were used directly for phenotypic and metabolic analyses or were cultured in complete RPMI medium for functional assays.
as §1

In assay [3] the test system is human CD3+ T cells. Briefly: Seahorse extracellular flux analysis of CD3-stimulated human CD3+ T cells from healthy donors. Format: cell-based. To be noted: anti-CD3 plus inhibitor vs vehicle, 48 hr. As for the experimental part: (§2) Human peripheral blood mononuclear cells (PBMC) were obtained from healthy donors by density gradient centrifugation using Ficoll-Paque™ PLUS Media (GE Healthcare). CD3^+ lymphocytes were negatively enriched using human Pan T cell isolation Kit™ (Miltenyi Biotec).
Extracellular acidification rates (ECAR) were measured using the Seahorse XF analyzer (Agilent). Glycolysis Stress Test (GST) and glycolytic rate assay (GRA) were performed according to kit manufacturer's instructions.
The day of the assay, 2×10^5 activated T cells were plated in Cell-Tak (Corning)-coated XF96 plates in XF media (XF RPMI Medium pH 7.4 containing 2 mM L-glutamine only for GST or supplemented with 10 mM glucose, 2 mM L-glutamine and 1 mM sodium pyruvate for GRA test, all from Agilent technologies) via centrifugation to ensure cell attachment. Cells were equilibrated for 1 hour in a non-CO2 incubator before starting the assay.
For GST, ECAR was measured under basal conditions and in response to 10 mM glucose, 1 μM oligomycin and 50 mM 2-DG successively to calculate basal glycolytic rate, glycolytic capacity (in response to oligomycin), and glycolytic reserve (glycolytic capacity−basal rate). For GRA, ECAR was measured under basal conditions and in response to 0.5 μM rotenone+0.5 μM antimycin A and 50 mM 2-DG successively to calculate basal glycolysis and compensatory glycolysis (in response to rotenone+antimycin A). Results were normalized to total protein quantified using Pierce™ BCA Protein Assay Kit (ThermoFisher Scientific).
Human peripheral blood mononuclear cells (PBMC) were obtained from healthy donors by density gradient centrifugation using Ficoll-Paque™ PLUS Media (GE Healthcare). CD3^+ lymphocytes were negatively enriched using human Pan T cell isolation Kit™ (Miltenyi Biotec). […].
Extracellular acidification rate (ECAR) and oxygen consumption rate (OCR) were measured using the Seahorse XF analyzer (Agilent technologies). Glycolysis Stress Test (GST), glycolytic rate assay (GRA) and mitochondrial stress test (MST) were purchased from Agilent technologies and performed according to the kit manufacturer's instructions. […]
For GST, ECAR and OCR were measured under basal conditions and in response to 10 mM glucose, 1 μM oligomycin and 50 mM 2-DG successively to calculate basal glycolytic rate, glycolytic capacity (in response to oligomycin), and glycolytic reserve (glycolytic capacity basal rate).
For GRA, ECAR and OCR were measured under basal conditions and in response to 0.5 μM roteone/antimycin A and 50 mM 2-DG successively to calculate basal glycolysis and compensatory glycolysis (in response to rotenone/antimycin A).

The target of assay [4] is T1, Sirt2 deacetylase activity (Homo sapiens, UniProt Q8IXJ6).
T1 construct: endogenous in cells; host or cells: human CD3+ T cells enriched from PBMC of healthy donors
T1 sequence (Q8IXJ6 1-389): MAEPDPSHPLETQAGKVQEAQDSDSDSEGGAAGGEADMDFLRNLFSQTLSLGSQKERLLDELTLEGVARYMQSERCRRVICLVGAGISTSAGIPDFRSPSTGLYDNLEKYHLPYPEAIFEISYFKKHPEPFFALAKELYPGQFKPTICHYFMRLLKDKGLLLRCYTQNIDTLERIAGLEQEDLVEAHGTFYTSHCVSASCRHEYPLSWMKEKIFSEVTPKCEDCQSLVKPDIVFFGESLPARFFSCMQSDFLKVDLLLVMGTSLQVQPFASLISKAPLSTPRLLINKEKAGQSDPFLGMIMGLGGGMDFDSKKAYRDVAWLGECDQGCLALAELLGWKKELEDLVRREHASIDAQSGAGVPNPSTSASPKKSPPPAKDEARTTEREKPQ
The assay can be described thus: Western blot of acetylated α-tubulin in human CD3+ enriched T cells. Format: cell-based. The settings on record: 48 hr, listed as TM. The method, then: as §2
Whole cell lysates were prepared using lysis buffer (Pierce RIPA buffer, ThermoFisher Scientific) supplemented with cOmplete™ Protease Inhibitor Cocktail and PhosSTOP Phosphatase Inhibitor (Roche Applied Science).
Cell lysates (20 ug) or IP samples were loaded onto 10% SDS-PAGE and separated by electrophoresis followed by semi-dry transfer into polyvinylidene fluoride membranes (Immun-Blot PVDF membrane, Bio-Rad) using Trans-Blot Turbo transfer system (Bio-Rad). After transfer, the membranes were blocked at room temperature with Tris-buffered saline (TBS) containing 0.05% Tween-20 (TBST) and 5% (w/v) milk for 1 h and then incubated overnight at 4° C. with a specific primary antibody (indicated below). […] After washing 3 times with TBST, bound antibodies were detected by chemiluminescence using the Pierce™ ECL Western Blotting Substrate and the Super Signal West Femto Maximum Sensitivity Substrate kits (ThermoFisher Scientific). […]

The test system of assay [5] is human CD3+ T cells. Briefly: IFN-γ ELISPOT on human CD3+ T cells from healthy donors. To be noted: inhibitor vs vehicle, 48 hr, listed as TM. Format: cell-based.
The next assay concerns Pmel T cells. Briefly: IFN-γ ELISPOT on gp100-stimulated Pmel T cells. The assay is classed as cell-based, mouse. The settings on record: gp100-stimulated Sirt2KO (Sirt2−/−) Pmel T cells. As for the experimental part:
Spleens and/or Lymph nodes (LN) were collected from WT, Sirt2KO, Pmel/WT, Pmel/Sirt2KO mice and processed into single-cell suspensions. CD3^+, CD4^+ and CD8^+ T cells were negatively enriched using Mouse Pan T cell, CD4^+ T cell and CD8^+ T cell isolation Kits™ respectively according to the manufacturers' instructions. The purity of the isolated cells was confirmed by flow cytometry (>95%). Purified T cells were cultured in completed RPMI 1640 medium (ThermoFisher Scientific) supplemented with 10% (vol/vol) Fetal bovine serum (FBS, Biowest) and 1% (vol/vol) penicillin/streptomycin (P/S, Thomas Scientific Inc). […]
The number of IFN-γ producing cells was evaluated in an ELISPOT assay. […] After washing steps and biotinylated anti-IFN-γ antibody (R4-6A2, ThermoFisher Scientific)+Streptavidin-HRP (BD Bioscience) labeling, spots were detected using AEC Substrate Kit (BD Biosciences) and counted using an AID ELISPOT Reader System (Autoimmun Diagnostika GmbH). […]
The number of IFN-γ producing cells was evaluated in an ELISPOT assay. […] After washing steps and successive biotinylated anti-IFN-γ antibody (R4-6A2, Mabtech, Inc.) and Streptavidin-HRP (BD Bioscience) labeling, spots were detected using AEC Substrate Kit (BD Biosciences) and counted using an AID ELISPOT Reader System (Autoimmun Diagnostika GmbH).

As to `O=C(Cc1ccccc1)Nc1nnc(CCSCCc2nnc(NC(=O)Cc3ccccc3)s2)s1` [BPTES], in assay [1], the maximal respiration entry is given as “insensitive” and the “maximal respiration (in response of FCCP)” value is on record as “significantly suppressed”.
Turning to `CCOC(=O)[C@@]1(CCCCCCOc2ccc(Cl)cc2)CO1` [Etomoxir], the figures for the maximal respiration entry in assay [1], in assay [2] (Sirt2−/− TILs) and in assay [2] (WT TILs) were “insensitive”, “remained resistant” and “decreases”, respectively. In addition, in assay [1], the “maximal respiration (in response of FCCP)” value is “significantly suppressed”.
On to `CCCCCCCCCCCCCC(=S)NCCCC[C@H](NC(=O)OCc1ccccc1)C(=O)Nc1ccccc1` [Thiomyristoyl], for which the OxPhos entry in the assay on human CD3+ T cells [3] is listed as “increased”. The “aerobic glycolysis (ECAR/PER)” value in the assay with human CD3+ T cells [3] (listed as TM) is on record as “increased; also recorded: augments”. Also, the “capacity to block Sirt2 deacetylase activity, monitored by acetylated α-tubulin levels” value in assay [4] is reported as “confirmed; also recorded: validated”. The “IFN-γ production (effector function)” value in the assay with human CD3+ T cells [5] is reported as “increased; also recorded: augments”.
For the compound `N#C/C(=C\c1cn(-c2ccccc2)c2ccccc12)C(=O)O` [UK5099], in assay [1], the maximal respiration result is “insensitive” and the “maximal respiration (in response of FCCP)” value was “significantly suppressed”.
On to `CC[C@H]1/C=C/C=C/C[C@@H](C)[C@H](O)[C@@](C)(O)C(=O)[C@@H](C)[C@H](O)[C@@H](C)C(=O)[C@@H](C)[C@H](O)[C@@H](C)/C=C/C(=O)O[C@@H]2[C@H](C)[C@H](CC1)O[C@]1(CC[C@H](C)[C@H](C[C@@H](C)O)O1)[C@H]2C` [oligomycin], for which the IFN-γ release result in the assay with Pmel T cells is “suppressed”.

The values are drawn from US20220017863A1, “SIRT2-ABLATED CHIMERIC T CELLS” (H. Lee Moffitt Cancer Center and Research Institute, Inc., priority 2019, published 2022).
